Test results reported in PMC11445708 (Dalton transactions (Cambridge, England : 2003), 2024).

System: mouse neuroblastoma N2a cells
Test: Rescue of Aβ42-induced neurotoxicity in N2a cells
Assay type: cell-based
Settings: N2a cells treated with Aβ42 and compound

COc1cc(/C=C/C(=O)CC(=O)/C=C/c2ccc(O)c(OC)c2)ccc1O [curcumin]
effect on Aβ42-induced neurotoxicity: dramatically increased the Aβ-induced cytotoxicity
